Values quoted from earlier work, collected in patent US20050255150A1 (priority 2004, published 2005).

Conditions: in vivo

Row | SMILES | Intramuscular Administration equivalent of 10 mg of intramuscular morphine in 24 hours [mg] | Oral Administration equivalent of 10 mg morphine in 24 hours (po) | Oral Administration equivalent of 10 mg morphine in 24 hours (value in brackets) (po)
1 | COc1ccc2c3c1O[C@H]1[C@@H](O)C=C[C@H]4[C@@H](C2)N(C)CC[C@@]341 [Codeine] | 130 | 200 mg | –
2 | CC(=O)Oc1ccc2c3c1O[C@H]1[C@@H](OC(C)=O)C=C[C@H]4[C@@H](C2)N(C)CC[C@@]341 [Heroin] | 5 | 60 mg | –
3 | CCOC(=O)C1(c2ccccc2)CCN(C)CC1 [Meperidine] | 75 | – | –
4 | CCC(=O)C(CC(C)N(C)C)(c1ccccc1)c1ccccc1 (centres unmarked) [Methadone] | 10 | 20 mg | –
5 | CN1CC[C@]23c4c5ccc(O)c4O[C@H]2[C@@H](O)C=C[C@H]3[C@H]1C5 [Morphine] | 10 | 60 (30 mg) | 60 (30 mg)
6 | COc1ccc2c3c1O[C@H]1C(=O)CC[C@@]4(O)[C@@H](C2)N(C)CC[C@]314 [Oxycodone] | 15 | 30 mg | –
7 | CN1CC[C@]23c4c5ccc(O)c4O[C@H]2C(=O)CC[C@@]3(O)[C@H]1C5 [Oxymorphone] | 1 | 10 mg | –
